Reference: patent US12384746B2, “Physics-driven discovery of novel small therapeutic compounds for use as a BCL-2 inhibitor” (BAHCESEHIR UNIVERSITESI, priority 2020, dated 2025)
Peptide text beside a SMILES is read from it. * marks the point of attachment. Boc = CC(C)(C)OC(=O)*

Test system: HCT-116 cells
Experiment: MTT cell proliferation assay on HCT-116 cells
Format: cell-based
Protocol: For cell culture experiments various cancer cell lines, HCT-116 colon cancer, U87-MG glial tumor, MCF7 breast cancer cell lines were used. Cells were seeded with high glucose DMEM medium (Biosera) supplemented with 10% FBS (Gibco) and 1× penicillin/streptomycin (Multicell). Twenty-four hours prior to molecule treatment, 10,000 cells were seeded into each well of 24-well cell culture plates. Molecules were used by preparing 4 mM stock solution in DMSO (Amresco). For molecule treatment, molecule stock solutions were diluted in DMEM with 10% FBS and added onto cells in each corresponding well. Final concentration of vehicle DMSO was 2% at maximum. […] We calculated the number of cells to be seeded to make sure that none of the cells reaches more than 60% confluency during the treatment period, as higher plate confluency levels would slow down cell proliferation independently from the molecule treatment.
Values of half-maximal inhibitory concentration were (IC50) determined by MTT cell proliferation assays. […] 570 nm absorbance values were recorded and IC50 values were calculated by dose response—inhibition curves and nonlinear regression analysis on GraphPad Prism 8 software. […] Following the initial incubation day, molecules were added and after incubation with MTT at 37° C. for 4 hours, formazan was solubilized with DMSO (Sigma-Aldrich, St. Louis, USA) and absorbance was measured at 570 nm. […]

- IC50 (Homo sapiens, 72 h, HCT-116 colon cancer cells, single treatment, three days, 570 nm absorbance, read-out: IC50 (half-maximal inhibitory concentration), MTT cell proliferation): 17 µM
SMILES: CCC(C)C(NC(=O)C(Cc1c[nH]c2ccccc12)NC(=O)OC(C)(C)C)C(=O)NC(CC(C)C)C(N)=O (stereo not drawn) [compound of formula I] (Boc-Trp-Ile-Leu-NH2; configuration not given here)
- proliferation of HCT-116 cells compared to vehicle group (HCT-116 cells, MTT assay, FIG. 1): reduced proliferation and apoptotic cell structures
